# Measurements reported in PubChem BioAssay AID1259407 (Chemical Carcinogenesis Research Information System (CCRIS), 2018).
# Active and inactive are the calls of the source. How the calls were made is not given here.
# Tested on: CCRIS mutagenicity, Ames/micronucleus/aberration tests
# Assay: CCRIS mutagenicity studies
# [1] = Test System: AMES SALMONELLA TYPHIMURIUM, Strain/Indicator: TA98, Metabolic Activation: NONE, Method: PREINCUBATION
# [2] = Test System: AMES SALMONELLA TYPHIMURIUM, Strain/Indicator: TA98, Metabolic Activation: RAT, LIVER, S-9, AROCLOR 1254 (10%), Method: PREINCUBATION
# [3] = Test System: AMES SALMONELLA TYPHIMURIUM, Strain/Indicator: TA100, Metabolic Activation: NONE, Method: PREINCUBATION
# [4] = Test System: AMES SALMONELLA TYPHIMURIUM, Strain/Indicator: TA100, Metabolic Activation: RAT, LIVER, S-9, AROCLOR 1254 (10%), Method: PREINCUBATION
# [5] = Test System: AMES SALMONELLA TYPHIMURIUM, Strain/Indicator: TA1535, Metabolic Activation: NONE, Method: PREINCUBATION
# [6] = Test System: AMES SALMONELLA TYPHIMURIUM, Strain/Indicator: TA1537, Metabolic Activation: NONE, Method: PREINCUBATION
# [7] = Test System: AMES SALMONELLA TYPHIMURIUM, Strain/Indicator: TA1537, Metabolic Activation: NONE, Method: STANDARD PLATE
compound,measurement,setting,value
C=C(C)C(=O)OCCC,mutagenic call,"Test System: AMES SALMONELLA TYPHIMURIUM, Strain/Indicator: TA98, Metabolic Activation: HAMSTER, LIVER, S-9, AROCLOR 1254 (10%), Method: PREINCUBATION",inactive; negative
same,mutagenic call,[1],inactive; negative
same,mutagenic call,[2],inactive; negative
same,mutagenic call,"Test System: AMES SALMONELLA TYPHIMURIUM, Strain/Indicator: TA100, Metabolic Activation: HAMSTER, LIVER, S-9, AROCLOR 1254 (10%), Method: PREINCUBATION",inactive; negative
same,mutagenic call,[3],inactive; negative
same,mutagenic call,[4],inactive; negative
same,mutagenic call,"Test System: AMES SALMONELLA TYPHIMURIUM, Strain/Indicator: TA1535, Metabolic Activation: HAMSTER, LIVER, S-9, AROCLOR 1254 (10%), Method: PREINCUBATION",inactive; negative
same,mutagenic call,[5],inactive; negative
same,mutagenic call,"Test System: AMES SALMONELLA TYPHIMURIUM, Strain/Indicator: TA1535, Metabolic Activation: RAT, LIVER, S-9, AROCLOR 1254 (10%), Method: PREINCUBATION",inactive; negative
same,mutagenic call,"Test System: AMES SALMONELLA TYPHIMURIUM, Strain/Indicator: TA1537, Metabolic Activation: HAMSTER, LIVER, S-9, AROCLOR 1254 (10%), Method: PREINCUBATION",inactive; negative
same,mutagenic call,[6],inactive; negative
same,mutagenic call,"Test System: AMES SALMONELLA TYPHIMURIUM, Strain/Indicator: TA1537, Metabolic Activation: RAT, LIVER, S-9, AROCLOR 1254 (10%), Method: PREINCUBATION",inactive; negative
COc1cc2c(c3oc(=O)c4c(c13)CCOC4=O)[C@@H]1CCO[C@@H]1O2,mutagenic call,[3],inactive; negative
same,mutagenic call,"Test System: AMES SALMONELLA TYPHIMURIUM, Strain/Indicator: TA100, Metabolic Activation: RAT, LIVER, S-9, PHENOBARBITAL, Method: PREINCUBATION",inactive; negative
Cc1cn2c([N+](=O)[O-])c(-c3ccc([N+](=O)[O-])cc3)nc2s1,mutagenic call,"Test System: AMES SALMONELLA TYPHIMURIUM, Strain/Indicator: TA98, Metabolic Activation: NONE, Method: STANDARD PLATE",active; positive
same,mutagenic call,"Test System: AMES SALMONELLA TYPHIMURIUM, Strain/Indicator: TA100, Metabolic Activation: NONE, Method: STANDARD PLATE",active; positive
same,mutagenic call,"Test System: AMES SALMONELLA TYPHIMURIUM, Strain/Indicator: TA1535, Metabolic Activation: NONE, Method: STANDARD PLATE",active; positive
same,mutagenic call,[7],active; positive
same,mutagenic call,"Test System: AMES SALMONELLA TYPHIMURIUM, Strain/Indicator: TA1538, Metabolic Activation: NONE, Method: STANDARD PLATE",active; positive
Cc1ccc2c(c1)c(=NC(=O)c1ccccc1[N+](=O)[O-])sn2C(=O)c1ccccc1[N+](=O)[O-],mutagenic call,"Test System: AMES SALMONELLA TYPHIMURIUM, Strain/Indicator: TA100, Metabolic Activation: S-9, Method: STANDARD PLATE",inactive; negative
Nc1ccc([N+](=O)[O-])cc1Cl,mutagenic call,"End Point: IN VITRO CHROMOSOMAL ABERRATIONS, Test System: CHL CELLS, Metabolic Activation: RAT, LIVER, S-9, SODIUM PHENOBARBITAL AND 5,6-BENZOFLAVONE",active; positive (structural changes)
same,mutagenic call,"End Point: IN VITRO MICRONUCLEUS, Test System: CHL/IU CELLS, Metabolic Activation: NONE",inactive; negative
same,mutagenic call,[1],active; positive
same,mutagenic call,"Test System: AMES SALMONELLA TYPHIMURIUM, Strain/Indicator: TA98, Metabolic Activation: RAT, LIVER, S-9, KANECHLOR 500, Method: PREINCUBATION",active; positive
same,mutagenic call,[3],inactive; negative
same,mutagenic call,"Test System: AMES SALMONELLA TYPHIMURIUM, Strain/Indicator: TA100, Metabolic Activation: RAT, LIVER, S-9, KANECHLOR 500, Method: PREINCUBATION",inactive; negative
same,mutagenic call,"Test System: UDS RODENT HEPATOCYTES, Strain/Indicator: THY INCORP (NON-S-PHASE), Metabolic Activation: NONE, Method: AUTORADIOGRAPHY",inactive; negative
CC[C@@]1(O)C(=O)OCc2c1cc1n(c2=O)Cc2cc3c(CN(C)C)c(O)ccc3nc2-1,mutagenic call,"Test System: CHINESE HAMSTER V-79, Strain/Indicator: V-79 (HPRT)/6-THIOGUANINE, Metabolic Activation: NONE",active; positive
Nc1ccc(S(=O)(=O)O)c2ccccc12,mutagenic call,[1],inactive; negative
same,mutagenic call,"Test System: AMES SALMONELLA TYPHIMURIUM, Strain/Indicator: TA98, Metabolic Activation: RAT LIVER S-9, PHENOBARBITAL AND BETA-NAPHTHOFLAVONE, Method: PREINCUBATION",inactive; negative
same,mutagenic call,[3],inactive; negative
same,mutagenic call,"Test System: AMES SALMONELLA TYPHIMURIUM, Strain/Indicator: TA100, Metabolic Activation: RAT LIVER S-9, PHENOBARBITAL AND BETA-NAPHTHOFLAVONE, Method: PREINCUBATION",inactive; negative
same,mutagenic call,[5],inactive; negative
same,mutagenic call,"Test System: AMES SALMONELLA TYPHIMURIUM, Strain/Indicator: TA1535, Metabolic Activation: RAT LIVER S-9, PHENOBARBITAL AND BETA-NAPHTHOFLAVONE, Method: PREINCUBATION",inactive; negative
same,mutagenic call,[6],inactive; negative
same,mutagenic call,"Test System: AMES SALMONELLA TYPHIMURIUM, Strain/Indicator: TA1537, Metabolic Activation: RAT LIVER S-9, PHENOBARBITAL AND BETA-NAPHTHOFLAVONE, Method: PREINCUBATION",inactive; negative
same,mutagenic call,"Test System: AMES SALMONELLA TYPHIMURIUM, Strain/Indicator: TA1538, Metabolic Activation: NONE, Method: PREINCUBATION",inactive; negative
same,mutagenic call,"Test System: AMES SALMONELLA TYPHIMURIUM, Strain/Indicator: TA1538, Metabolic Activation: RAT LIVER S-9, PHENOBARBITAL AND BETA-NAPHTHOFLAVONE, Method: PREINCUBATION",inactive; negative
same,mutagenic call,"Test System: E.COLI, Strain/Indicator: WP2UVRA, Metabolic Activation: NONE, Method: PREINCUBATION",inactive; negative
same,mutagenic call,"Test System: E.COLI, Strain/Indicator: WP2UVRA, Metabolic Activation: RAT LIVER S-9, PHENOBARBITAL AND BETA-NAPHTHOFLAVONE, Method: PREINCUBATION",inactive; negative
Nc1ccc(N=Nc2ccccc2)c(N)n1,mutagenic call,"End Point: IN VITRO CHROMOSOMAL ABERRATIONS, Test System: CHINESE HAMSTER OVARY CELLS, Metabolic Activation: NONE",active; positive (ploidy changes)
same,mutagenic call,"End Point: IN VITRO CHROMOSOMAL ABERRATIONS, Test System: CHINESE HAMSTER OVARY CELLS, Metabolic Activation: RAT, LIVER, S-9, AROCLOR 1254","active; positive; authors reported that all doses were toxic, but were scored because of"
same,mutagenic call,"Test System: MOUSE LYMPHOMA, Strain/Indicator: L5178Y (TK+/TK-), Metabolic Activation: NONE, Method: SUSPENSION/PLATE",inactive; negative
same,mutagenic call,"Test System: MOUSE LYMPHOMA, Strain/Indicator: L5178Y (TK+/TK-), Metabolic Activation: RAT, LIVER, S-9, AROCLOR 1254, Method: SUSPENSION/PLATE",active; positive
same,mutagenic call,"Test System: UDS RAT HEPATOCYTES, Strain/Indicator: BROMODEOXYURIDINE INCORP, Metabolic Activation: NONE, Method: FLOW CYTOMETRIC ANALYSIS",active; positive
same,mutagenic call,"Test System: UDS RAT HEPATOCYTES, Strain/Indicator: THY INCORP, Metabolic Activation: NONE, Method: AUTORADIOGRAPHY",active; positive
O=C(O)c1ccc(/C=N/n2nnc3c([nH]c4ccccc43)c2=O)cc1,mutagenic call,"Test System: AMES SALMONELLA TYPHIMURIUM, Strain/Indicator: TA97, Metabolic Activation: NONE, Method: PREINCUBATION",active; positive
same,mutagenic call,"Test System: AMES SALMONELLA TYPHIMURIUM, Strain/Indicator: TA97, Metabolic Activation: RAT, LIVER, S-9, AROCLOR 1254 (10%), Method: PREINCUBATION",active; positive
same,mutagenic call,[1],active; positive
same,mutagenic call,[2],active; positive
same,mutagenic call,[3],active; positive
same,mutagenic call,[4],active; positive
same,mutagenic call,"Test System: AMES SALMONELLA TYPHIMURIUM, Strain/Indicator: TA102, Metabolic Activation: NONE, Method: PREINCUBATION",inactive; negative
same,mutagenic call,"Test System: AMES SALMONELLA TYPHIMURIUM, Strain/Indicator: TA102, Metabolic Activation: RAT, LIVER, S-9, AROCLOR 1254 (10%), Method: PREINCUBATION",active; positive
Cc1c2ccccc2c(CO)c2c3c(ccc12)[C@@H](O)[C@H](O)C=C3,mutagenic call,"Test System: CHINESE HAMSTER V-79, Strain/Indicator: V-79/6-THIOGUANINE, Metabolic Activation: CELL-MEDIATED, Method: STANDARD PLATE",active; positive
same,mutagenic call,"Test System: CHINESE HAMSTER V-79, Strain/Indicator: V-79/OUABAIN, Metabolic Activation: CELL-MEDIATED, Method: STANDARD PLATE",active; positive
CNc1ccc(Nc2c3ccccc3nc3ccccc23)cc1,mutagenic call,[7],active; positive
